The text below walks through data of patent publication US10240255B2 (priority 2007, dated 2019).

Each structure is given as a SMILES string.

The test system of series [1] is BioMAP® systems (primary human cells). It is filed as cell-based.
Series [2] has as its system endothelial cells and PBMC.

For the compound `CO/C(=C/C(N)=O)[C@H](C)[C@H](/C=C/c1csc(-c2csc([C@@H](C)/C=C/C=C/C(C)C)n2)n1)OC` [Myxothiazol], in series [1], the IL1 level entry is “upregulation”, the MCP1 level result is “inhibition”, the T cell activation entry is on record as “inhibition” and the VCAM level entry is reported as “upregulation”. The proliferation entry in series [1] is given as “inhibition”.

With `COC[C@H]1OC(=O)c2coc3c2[C@@]1(C)C1=C(C3=O)[C@@H]2CCC(=O)[C@@]2(C)C[C@H]1OC(C)=O` [Wortmannin], in series [2], the cytotoxicity result was “not cytotoxic”.

For the compound `C=C(CC)C(=O)c1ccc(OCC(=O)O)c(Cl)c1Cl` [ethacrynic acid], in series [2] (10 μM), the E-selectin level entry is listed as “inhibition”, the HLA-DR level entry is on record as “inhibition”, the PBMC proliferation entry is reported as “inhibition” and the T cell activation result is on record as “inhibition”. Besides, in series [2] (10 μM), the VCAM level entry is given as “inhibition” and the monocyte activation entry is “inhibition”.
